Patent US12454507B2, “Compounds having a fungicidal activity, their agronomic compositions and use thereof for the control of phytopathogenic fungi” (ISAGRO S.p.A., priority 2019, dated 2025)

Experiments:
Plasmopara viticola = assay: Preventive activity (7 days) against Plasmopara viticola on vines; type: in vivo; conditions: leaf spray, inoculation 7 days after treatment, vine Merlot, reduction of diseased leaf area vs untreated (100=complete effectiveness)
Description: Leaves of vine plants, Merlot variety, grown in pots, in a conditioned environment (20±1° C., 70% R.H.) were treated by spraying both sides of the leaves with the products in question. 7 days after the treatment, the plants were inoculated with an aqueous suspension of Plasmopara viticola spores (200,000 spores/cc) by spraying both sides of the leaves with a compressed air gun. After remaining 24 hours in a humidity-saturated environment, at 21° C., the plants were transferred for the incubation period (7 days) in a conditioned environment with 70% R.H. and at 24° C. After this period of time, the external symptoms of the pathogen appeared and it was therefore possible to evaluate the intensity of the infection.

Puccinia Recondita = assay: Preventive fungicidal activity (5 days) against Puccinia recondita on wheat; type: in vivo; conditions: wheat Salgemma, inoculation 5 days after treatment; for P5 Activity NT: parts developed during the test (NT); for P5 Activity T: parts treated directly (T)
Description: Leaves of wheat plants of the […] variety, grown in pots in a conditioned environment at 20° C. and 70% of Relative Humidity (RH), were treated by spraying both sides of the leaves with the compound under examination dispersed in a hydroacetone solution at 20% by volume of acetone. […] After spraying, the plants were kept in a humidity-saturated environment at a temperature ranging from 18 to 24° C. for the incubation period of the fungus (1 day). At the end of this period, the plants were put in a greenhouse with a relative humidity (RH) of 70% and at a temperature of 18-24° C. for 14 days At the end of this period, the external symptoms of the pathogen appeared and it was therefore possible to proceed with the visual evaluation of the intensity of the infection, both on the parts treated directly with the products (T) and on the parts developed during the implementation of the test (NT).

Phakopsora pachyrhizi = assay: Preventive fungicidal activity (5 days) against Phakopsora pachyrhizi on soya; type: in vivo; conditions: for P5 Activity: soya Zora, inoculation 5 days after treatment; for control of the pathogen: dose of 125 ppm
Alternaria alternata = type: cell-based; conditions: 20° C., 72 hours (96 or 120 when necessary)
Cercospora beticola = assay: Antifungal activity in vitro (growth inhibition, 96-well absorbance); type: cell-based; conditions: 20° C., 72 hours (96 or 120 when necessary)
Bipolaris sorokiniana = assay: as above; type: cell-based; conditions: 20° C., 72 hours (96 or 120 when necessary)
Parastagonospora nodorum = assay: as above; type: cell-based; conditions: 20° C., 72 hours (96 or 120 when necessary)
Sclerotinia sclerotiorum = assay: as above; type: cell-based; conditions: 20° C., 72 hours (96 or 120 when necessary)
Zymoseptoria tritici = assay: as above; type: cell-based; conditions: 20° C., 72 hours (96 or 120 when necessary)
Phytophthora infestans = type: cell-based; conditions: for In vitro antifungal activity, 50% effective doses (EC50): Phytophthora infestans, 20° C., 72 hours (96 or 120 when necessary)
Venturia inaequalis = type: cell-based; conditions: for In vitro antifungal activity, 50% effective doses (EC50): Venturia inaequalis, 20° C., 72 hours (96 or 120 when necessary)
Magnaporthe oryzae = type: cell-based; conditions: for In vitro antifungal activity, 50% effective doses (EC50): Magnaporthe oryzae, 20° C., 72 hours (96 or 120 when necessary)
Pythium ultimum = type: cell-based; conditions: for In vitro antifungal activity, 50% effective doses (EC50): Pythium ultimum, 20° C., 72 hours (96 or 120 when necessary)

| Compound | P7Activity (Plasmopara viticola; 30 ppm) [%] | P7Activity (Plasmopara viticola; 125 ppm) [%] | P5 Activity NT (Puccinia Recondita; 125 ppm) [%] | P5 Activity T (Puccinia Recondita; 125 ppm) [%] | P5 Activity NT (Puccinia Recondita; 250 ppm) [%] | P5 Activity T (Puccinia Recondita; 250 ppm) [%] | P5 Activity (Phakopsora pachyrhizi; 15 ppm) [%] | P5 Activity (Phakopsora pachyrhizi; 30 ppm) [%] | In vitro antifungal activity, 50% effective doses (EC50) (Cercospora beticola) [mg/L] | In vitro antifungal activity, 50% effective doses (EC50) (Bipolaris sorokiniana) [mg/L] | In vitro antifungal activity, 50% effective doses (EC50) (Parastagonospora nodorum) [mg/L] | In vitro antifungal activity, 50% effective doses (EC50) (Sclerotinia sclerotiorum) [mg/L] | In vitro antifungal activity, 50% effective doses (EC50) (Zymoseptoria tritici) [mg/L] | control of the pathogen (Phakopsora pachyrhizi) | In vitro antifungal activity, 50% effective doses (EC50) (Phytophthora infestans) [mg/L] | In vitro antifungal activity, 50% effective doses (EC50) (Venturia inaequalis) [mg/L] | In vitro antifungal activity, 50% effective doses (EC50) (Magnaporthe oryzae) [mg/L] | also measured |
| --- | --- | --- | --- | --- | --- | --- | --- | --- | --- | --- | --- | --- | --- | --- | --- | --- | --- | --- |
| COc1ccnc(C(=O)N[C@@H](C)C(=O)O[C@@H](C)C(c2ccc(F)cc2)c2ccc(F)cc2)c1OC(C)=O [CR1, Florypicoxamid, reference compound] | 10 | 40 | 90 | 99 | 100 | 100 | 100 | 100 |  |  |  |  |  |  |  |  |  |  |
| C[C@H](NC(=O)c1ccccc1O)C(=O)O[C@@H](C)C(c1ccc(F)cc1)c1ccc(F)cc1 [CR2, reference compound] |  |  |  |  |  |  |  |  | 0.48 | 3.6 | 0.24 | 5.38 | 0.14 |  |  |  |  | In vitro antifungal activity, 50% effective doses (EC50) (Alternaria alternata): 7.57 mg/L |
| CCCCCCCC(C)OC(=O)[C@H](C)NC(=O)c1cccc(NC=O)c1O (stereo partly drawn) [Compound 46, (2S)-2-(3-formamide-salicylamide)-propanoate of nonan-2-yl] | 100 | 100 | 90 | 98 | 99 | 100 | 98 | 99 | 1.34 | 2.68 | 0.001 | 0.02 | 0.02 | complete control | 0.04 | 0.25 |  |  |
| CC(C)C(=O)OCOc1c(NC=O)cccc1C(=O)N[C@@H](C)C(=O)O[C@@H](C)C(c1ccc(F)cc1)c1ccc(F)cc1 [Compound 156, (2S)-2-[3-formamide-2-(methoxy-(2-methyl)propanoate)-benzamide] of (2S)-1,1-bis(4-fluorophenyl)propan-2-yl] | 100 | 100 | 93 | 98 | 100 | 100 | 100 | 100 |  |  |  |  |  | complete control |  |  |  |  |
| C[C@H](NC(=O)c1cccc(NC=O)c1O)C(=O)O[C@@H](C)C(c1ccc(F)cc1)c1ccc(F)cc1 [Compound 165, (2S)-2-(3-formamide-salicylamide) propanoate of (2S)-1,1-bis(4-fluorophenyl) propan-2-yl] | 100 | 100 | 88 | 95 | 100 | 100 | 99 | 100 | 0.19 | 0.11 | 0.01 | 0.01 | 0.007 | complete control | 0.05 | 0.18 | 0.2 | In vitro antifungal activity, 50% effective doses (EC50) (Alternaria alternata): 0.33 mg/L; in vitro antifungal activity (in words) (Magnaporthe oryzae; M. oryzae): active; in vitro antifungal activity (in words) (Phytophthora infestans; P. infestans): active; in vitro antifungal activity (in words) (Pythium ultimum; P. ultimum): active; In vitro antifungal activity, 50% effective doses (EC50) (Pythium ultimum): 1.54 mg/L; in vitro antifungal activity (in words) (Venturia inaequalis; V. inaequalis): active |
| CCCCOC(=O)[C@H](C)OC(=O)[C@H](C)NC(=O)c1cccc(NC=O)c1O [Compound 236] |  |  |  |  |  |  |  |  | 8.64 | 8.0 | 0.009 | 0.18 | 0.095 |  | 1.49 | 1.77 | 0.79 |  |
| CCCCC(CC)COC(=O)[C@H](C)OC(=O)[C@H](C)NC(=O)c1cccc(NC=O)c1O (stereo partly shown) [Compound 239] |  |  |  |  |  |  |  |  |  |  | 0.006 | 0.081 | 0.067 |  | 1.62 |  | 0.64 | In vitro antifungal activity, 50% effective doses (EC50) (Pythium ultimum): 2.78 mg/L |
| C[C@H](NC(=O)c1cccc(NC=O)c1O)C(=O)O[C@@H](C)C(=O)OCc1ccccc1 [Compound 248] |  |  |  |  |  |  |  |  |  |  | 0.008 |  | 0.17 |  | 1.14 |  |  |  |
| CCCCCCC[C@H](C)OC(=O)[C@H](C)NC(=O)c1cccc(NC=O)c1O [Compound 249] | 100 | 100 | 95 | 99 | 100 | 100 | 98 | 100 |  |  |  |  |  | complete control |  |  |  |  |
